This note sets out measurements from ChEMBL document CHEMBL1135290, “Synthesis of sub-micromolar inhibitors of MraY by exploring the region originally occupied by the diazepanone ring in the liposidomycin structure” (Bioorg Med Chem Lett, 2002).

This assay is described as follows: Inhibitory activity against Translocase I.
In the case of `NC[C@H]1O[C@@H](O[C@@H](CNC(=O)c2ccc(Br)cc2)[C@@H]2C[C@@H](O)[C@H](n3ccc(=O)[nH]c3=O)O2)[C@H](O)[C@@H]1O`, the 50% inhibitory concentration (IC50) worked out at 440 nM.

For `CC(C)(C)c1ccc(CNC[C@H](O[C@@H]2O[C@H](CN)[C@@H](O)[C@H]2O)[C@@H]2C[C@@H](O)[C@H](n3ccc(=O)[nH]c3=O)O2)cc1`, it took 580 nM to reach half-maximal inhibition (IC50).

Regarding `COC(=O)C1CCN(C[C@H](O[C@@H]2O[C@H](CN)[C@@H](O)[C@H]2O)[C@@H]2C[C@@H](O)[C@H](n3ccc(=O)[nH]c3=O)O2)CC1`, the IC50 was determined as 4400 nM.

`NC[C@H]1O[C@@H](O[C@@H](CNC(=O)Cc2ccc(-c3ccccc3)cc2)[C@@H]2C[C@@H](O)[C@H](n3ccc(=O)[nH]c3=O)O2)[C@H](O)[C@@H]1O` had an IC50 of 430 nM.

The compound `CC(=O)N[C@H]1[C@@H](O[C@@H]2O[C@H](CC(O)[C@H]3O[C@@H](n4ccc(=O)[nH]c4=O)[C@H](O)[C@@H]3O)[C@H](O)[C@H](O)[C@H]2NC(=O)/C=C/CC(C)C)O[C@H](CO)[C@@H](N)[C@@H]1O` (some centres not stated) [TUNICAMYCIN] registered an IC50 of 480 nM.

`NC[C@H]1O[C@@H](OC[C@H]2O[C@@H](n3ccc(=O)[nH]c3=O)[C@H](O)[C@@H]2O)[C@H](O)[C@@H]1O` showed an IC50 of 50000 nM. Against the preceding compound, the IC50 is about 100-fold higher.

On to `NC[C@H]1O[C@@H](O[C@@H](CNCc2ccc(SC(F)(F)F)cc2)[C@@H]2C[C@@H](O)[C@H](n3ccc(=O)[nH]c3=O)O2)[C@H](O)[C@@H]1O`, for which the half-inhibitory concentration (IC50) was determined as 310 nM. Compared with the last compound, the IC50 is about 160-fold lower.

In turn, `NC[C@H]1O[C@@H](O[C@@H](CNCCc2ccncc2)[C@@H]2C[C@@H](O)[C@H](n3ccc(=O)[nH]c3=O)O2)[C@H](O)[C@@H]1O` gave a 50% inhibitory concentration (IC50) of 4600 nM.

In the case of `NC[C@H]1O[C@@H](O[C@@H](CNCCCN2CCCC2=O)[C@@H]2C[C@@H](O)[C@H](n3ccc(=O)[nH]c3=O)O2)[C@H](O)[C@@H]1O`, half-maximal inhibition (IC50) required 7000 nM.

In turn, `CCCCCCCCCCCCN(C)C[C@H](O[C@@H]1O[C@H](CN)[C@@H](O)[C@H]1O)[C@@H]1C[C@@H](O)[C@H](n2ccc(=O)[nH]c2=O)O1` showed an IC50 of 230 nM.

`NC[C@H]1O[C@@H](O[C@@H](CNCCc2ccccc2)[C@@H]2C[C@@H](O)[C@H](n3ccc(=O)[nH]c3=O)O2)[C@H](O)[C@@H]1O` registered an IC50 of 1600 nM.

As for `NC[C@H]1O[C@@H](O[C@@H](CNCCc2cccc(C(F)(F)F)c2)[C@@H]2C[C@@H](O)[C@H](n3ccc(=O)[nH]c3=O)O2)[C@H](O)[C@@H]1O`, half-maximal inhibition (IC50) was put at 220 nM.

Turning to `NC[C@H]1O[C@@H](O[C@@H](CO)[C@H]2O[C@@H](n3ccc(=O)[nH]c3=O)[C@H](O)[C@@H]2O)[C@H](O)[C@@H]1O`, the IC50 was determined as 5000 nM.

`NC[C@H]1O[C@@H](O[C@@H](CN2CCCCC2)[C@@H]2C[C@@H](O)[C@H](n3ccc(=O)[nH]c3=O)O2)[C@H](O)[C@@H]1O` returned an IC50 of 5900 nM.

`NC[C@H]1O[C@@H](O[C@@H](CNC(=O)c2ccc(C3CCCCC3)cc2)[C@@H]2C[C@@H](O)[C@H](n3ccc(=O)[nH]c3=O)O2)[C@H](O)[C@@H]1O` yielded an IC50 of 390 nM. This IC50 lies about 15-fold lower than the previous one.

In turn, `NC[C@H]1O[C@@H](O[C@@H](CNC(=O)c2ccccc2)[C@@H]2C[C@@H](O)[C@H](n3ccc(=O)[nH]c3=O)O2)[C@H](O)[C@@H]1O` had an IC50 of 14000 nM.

`NC[C@H]1O[C@@H](O[C@@H](CN2CCN(CC(=O)N3CCCC3)CC2)[C@@H]2C[C@@H](O)[C@H](n3ccc(=O)[nH]c3=O)O2)[C@H](O)[C@@H]1O` showed a half-maximal inhibitory concentration (IC50) of 1900 nM.

`NC[C@H]1O[C@@H](O[C@@H](CNCc2cccs2)[C@@H]2C[C@@H](O)[C@H](n3ccc(=O)[nH]c3=O)O2)[C@H](O)[C@@H]1O` yielded an IC50 of 2300 nM.

Compound `COC(=O)c1ccc(CNC[C@H](O[C@@H]2O[C@H](CN)[C@@H](O)[C@H]2O)[C@@H]2C[C@@H](O)[C@H](n3ccc(=O)[nH]c3=O)O2)cc1` gave an IC50 of 1200 nM.

Turning to `CC(C)c1ccc(C(=O)NC[C@H](O[C@@H]2O[C@H](CN)[C@@H](O)[C@H]2O)[C@@H]2C[C@@H](O)[C@H](n3ccc(=O)[nH]c3=O)O2)cc1`, 400 nM corresponded to half-maximal inhibition (IC50).

For `CN(Cc1ccc(-c2ccccc2)cc1)C[C@H](O[C@@H]1O[C@H](CN)[C@@H](O)[C@H]1O)[C@@H]1C[C@@H](O)[C@H](n2ccc(=O)[nH]c2=O)O1`, the IC50 stood at 170 nM.

`NC[C@H]1O[C@@H](O[C@@H](CNCc2ccncc2)[C@@H]2C[C@@H](O)[C@H](n3ccc(=O)[nH]c3=O)O2)[C@H](O)[C@@H]1O` registered an IC50 of 3400 nM.

For the compound `CCN(CC)CCN1CCN(C[C@H](O[C@@H]2O[C@H](CN)[C@@H](O)[C@H]2O)[C@@H]2C[C@@H](O)[C@H](n3ccc(=O)[nH]c3=O)O2)CC1`, half-maximal inhibition (IC50) required 1800 nM. This IC50 lies about 1.9-fold lower than the previous one.

Compound `NC[C@H]1O[C@@H](O[C@@H](CNCCCn2ccnc2)[C@@H]2C[C@@H](O)[C@H](n3ccc(=O)[nH]c3=O)O2)[C@H](O)[C@@H]1O` had an IC50 of 3800 nM.

In turn, `CN(Cc1ccccc1)C[C@H](O[C@@H]1O[C@H](CN)[C@@H](O)[C@H]1O)[C@@H]1C[C@@H](O)[C@H](n2ccc(=O)[nH]c2=O)O1` returned an IC50 of 6900 nM.

`COc1ccc(CN(C)C[C@H](O[C@@H]2O[C@H](CN)[C@@H](O)[C@H]2O)[C@@H]2C[C@@H](O)[C@H](n3ccc(=O)[nH]c3=O)O2)cc1` came in with an IC50 of 1400 nM. Against the preceding compound, the IC50 is about 4.9-fold lower.

`NC[C@H]1O[C@@H](O[C@@H](CNCC2COc3ccccc3O2)[C@@H]2C[C@@H](O)[C@H](n3ccc(=O)[nH]c3=O)O2)[C@H](O)[C@@H]1O` (some centres not stated) registered an IC50 of 2800 nM.

The compound `CCCCCN(CCCCC)C[C@H](O[C@@H]1O[C@H](CN)[C@@H](O)[C@H]1O)[C@@H]1C[C@@H](O)[C@H](n2ccc(=O)[nH]c2=O)O1` showed an IC50 of 9700 nM.

As for `NC[C@H]1O[C@@H](O[C@@H](CNCC2CCCO2)[C@@H]2C[C@@H](O)[C@H](n3ccc(=O)[nH]c3=O)O2)[C@H](O)[C@@H]1O` (some centres not stated), it took 9200 nM to reach half-maximal inhibition (IC50).

On to `NC[C@H]1O[C@@H](O[C@@H](CNc2ccc(Oc3ccccc3)cc2)[C@@H]2C[C@@H](O)[C@H](n3ccc(=O)[nH]c3=O)O2)[C@H](O)[C@@H]1O`, for which the IC50 stood at 200 nM.

Take `CCCCCCCNC[C@H](O[C@@H]1O[C@H](CN)[C@@H](O)[C@H]1O)[C@@H]1C[C@@H](O)[C@H](n2ccc(=O)[nH]c2=O)O1`: the IC50 turned out to be 740 nM.

In turn, `Cc1ccc(CCNC[C@H](O[C@@H]2O[C@H](CN)[C@@H](O)[C@H]2O)[C@@H]2C[C@@H](O)[C@H](n3ccc(=O)[nH]c3=O)O2)cc1` came in with an IC50 of 610 nM.

With `NC[C@H]1O[C@@H](O[C@@H](CNCCc2ccc(Oc3ccccc3)cc2)[C@@H]2C[C@@H](O)[C@H](n3ccc(=O)[nH]c3=O)O2)[C@H](O)[C@@H]1O`, the IC50 is 310 nM.

In turn, `NC[C@H]1O[C@@H](O[C@@H](CNC(=O)c2ccc(Oc3ccccc3)cc2)[C@@H]2C[C@@H](O)[C@H](n3ccc(=O)[nH]c3=O)O2)[C@H](O)[C@@H]1O` gave an IC50 of 200 nM.

In turn, `NC[C@H]1O[C@@H](O[C@@H](CNCCCN2CCOCC2)[C@@H]2C[C@@H](O)[C@H](n3ccc(=O)[nH]c3=O)O2)[C@H](O)[C@@H]1O` yielded an IC50 of 3800 nM. Against the preceding compound, the IC50 is about 19-fold higher.

The compound `NC[C@H]1O[C@@H](O[C@@H](CNCCc2ccc(Cl)cc2)[C@@H]2C[C@@H](O)[C@H](n3ccc(=O)[nH]c3=O)O2)[C@H](O)[C@@H]1O` returned an IC50 of 170 nM.

For `NC[C@H]1O[C@@H](O[C@@H](CNC(=O)c2ccc(OCc3ccccc3)cc2)[C@@H]2C[C@@H](O)[C@H](n3ccc(=O)[nH]c3=O)O2)[C@H](O)[C@@H]1O`, half-maximal inhibition (IC50) was put at 320 nM.

As to `NC[C@H]1O[C@@H](O[C@@H](CNC(=O)c2cccc(OC(F)(F)F)c2)[C@@H]2C[C@@H](O)[C@H](n3ccc(=O)[nH]c3=O)O2)[C@H](O)[C@@H]1O`, the concentration for half-maximal inhibition (IC50) was 1000 nM.

The compound `NC[C@H]1O[C@@H](O[C@@H](CNC(=O)Nc2ccc(C3CCCCC3)cc2)[C@@H]2C[C@@H](O)[C@H](n3ccc(=O)[nH]c3=O)O2)[C@H](O)[C@@H]1O` yielded an IC50 of 160 nM.

`NC[C@H]1O[C@@H](O[C@@H](CNC(=O)c2cccc(Oc3ccccc3)c2)[C@@H]2C[C@@H](O)[C@H](n3ccc(=O)[nH]c3=O)O2)[C@H](O)[C@@H]1O` yielded an IC50 of 440 nM.

For `CN1CCCC1CNC[C@H](O[C@@H]1O[C@H](CN)[C@@H](O)[C@H]1O)[C@@H]1C[C@@H](O)[C@H](n2ccc(=O)[nH]c2=O)O1` (some centres not stated), the IC50 amounted to 1300 nM.

Compound `NC[C@H]1O[C@@H](O[C@@H](CNCc2cccnc2)[C@@H]2C[C@@H](O)[C@H](n3ccc(=O)[nH]c3=O)O2)[C@H](O)[C@@H]1O` returned an IC50 of 4800 nM.

`CN1CCCC1CCNC[C@H](O[C@@H]1O[C@H](CN)[C@@H](O)[C@H]1O)[C@@H]1C[C@@H](O)[C@H](n2ccc(=O)[nH]c2=O)O1` (some centres not stated) came in with an IC50 of 3900 nM.

In turn, `NC[C@H]1O[C@@H](O[C@@H](CNc2ccc(C3CCCCC3)cc2)[C@@H]2C[C@@H](O)[C@H](n3ccc(=O)[nH]c3=O)O2)[C@H](O)[C@@H]1O` gave an IC50 of 180 nM. This IC50 is about 22-fold lower than that of the compound before.

On to `NC[C@H]1O[C@@H](O[C@@H](CNC(=O)c2ccc(-c3ccccc3)cc2)[C@@H]2C[C@@H](O)[C@H](n3ccc(=O)[nH]c3=O)O2)[C@H](O)[C@@H]1O`, for which the IC50 was determined as 250 nM. This IC50 and that of the compound before are within 1.5-fold of each other.

Take `NC[C@H]1O[C@@H](O[C@@H](CNCc2ccc(OC(F)(F)F)cc2)[C@@H]2C[C@@H](O)[C@H](n3ccc(=O)[nH]c3=O)O2)[C@H](O)[C@@H]1O`: the IC50 is 300 nM.

Take `NC[C@H]1O[C@@H](O[C@@H](CN2CCC(Cc3ccccc3)CC2)[C@@H]2C[C@@H](O)[C@H](n3ccc(=O)[nH]c3=O)O2)[C@H](O)[C@@H]1O`: the midpoint of inhibition, the IC50, lay at 350 nM.

The compound `NC[C@H]1O[C@@H](O[C@@H](CNCCc2c[nH]c3ccccc23)[C@@H]2C[C@@H](O)[C@H](n3ccc(=O)[nH]c3=O)O2)[C@H](O)[C@@H]1O` yielded an IC50 of 2900 nM.

Take `NC[C@H]1O[C@@H](O[C@@H](CNCc2ccc(C(=O)O)cc2)[C@@H]2C[C@@H](O)[C@H](n3ccc(=O)[nH]c3=O)O2)[C@H](O)[C@@H]1O`: half-maximal inhibition (IC50) was put at 6500 nM.

In the case of `NC[C@H]1O[C@@H](O[C@@H](CNC(=O)Nc2ccc(Oc3ccccc3)cc2)[C@@H]2C[C@@H](O)[C@H](n3ccc(=O)[nH]c3=O)O2)[C@H](O)[C@@H]1O`, the midpoint of inhibition, the IC50, lay at 140 nM.

`CSCC[C@H](NC(=O)N[C@@H](Cc1cccc(O)c1)C(=O)O)C(=O)NC(C(=O)N/C=C1\C[C@@H](O)[C@H](n2ccc(=O)[nH]c2=O)O1)[C@H](C)N(C)C(=O)[C@@H](N)Cc1cccc(O)c1` (some centres not stated) registered an IC50 of 65 nM. This IC50 lies about 2.2-fold lower than the previous one.

Turning to `COc1ccc(CNC[C@H](O[C@@H]2O[C@H](CN)[C@@H](O)[C@H]2O)[C@@H]2C[C@@H](O)[C@H](n3ccc(=O)[nH]c3=O)O2)cc1OC`, the midpoint of inhibition, the IC50, lay at 4000 nM.
